The test system of data set [1] is M14. Kind of data set: NCI 60-cell line one-dose antiproliferative screen (SRB). The format is cell-based. The conditions noted are these: Homo sapiens, read-out: growth inhibition % (GI%). Put shortly:
(§1)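 Cells were plated and held 24 h at 37 °C, 5% CO2 before a single 10 µM dose was added, then exposed 48 h. Adherent cells were fixed with TCA (final 10%), suspension cells with TCA (final 16%), stained with sulforhodamine B and read at 515 nm.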

For data set [2], the system named is ACHN. The description is as above. The class given is cell-based. The conditions noted are these: Homo sapiens, read-out: growth inhibition % (GI%). An outline of the steps: as §1
The subject of data set [3] is CCRF-CEM. The data set is described as above. The class given is cell-based. The conditions noted are these: Homo sapiens, read-out: growth inhibition % (GI%). Put shortly: as §1
Data set [4] concerns SK-OV-3. The data set is described as above. The format is cell-based. The conditions noted are these: Homo sapiens, read-out: growth inhibition % (GI%). Put shortly: as §1
Data set [5] concerns SK-MEL-2. Described as above. The format is cell-based. The conditions noted are these: Homo sapiens, read-out: growth inhibition % (GI%). Put shortly: as §1
Data set [6] deals with SK-MEL-5. Described as above. The class given is cell-based. The conditions noted are these: Homo sapiens, read-out: growth inhibition % (GI%). Put shortly: as §1
Data set [7] deals with NCI-H23. The description is as above. The format is cell-based. The conditions noted are these: Homo sapiens, read-out: growth inhibition % (GI%). An outline of the steps: as §1
Data set [8] has as its system NCI-H226. The data set is described as above. The conditions noted are these: Homo sapiens, read-out: growth inhibition % (GI%). The format is cell-based. Put shortly: as §1
The subject of data set [9] is CAKI-1. The data set is described as above. The class given is cell-based. The conditions noted are these: Homo sapiens, read-out: growth inhibition % (GI%). An outline of the steps:
as §1

In data set [10] the test system is HCT-15. The description is as above. The format is cell-based. The conditions noted are these: Homo sapiens, read-out: growth inhibition % (GI%). Put shortly:
as §1

Data set [11] has as its system HCT-116. Described as above. The format is cell-based. The conditions noted are these: Homo sapiens, read-out: growth inhibition % (GI%). An outline of the steps: as §1
Data set [12] relates to SF-268. Described as above. The class given is cell-based. The conditions noted are these: Homo sapiens, read-out: growth inhibition % (GI%). Put shortly:
as §1

The subject of data set [13] is MDA-MB-435. Described as above. The class given is cell-based. The conditions noted are these: Homo sapiens, read-out: growth inhibition % (GI%). Put shortly:
as §1

The test system of data set [14] is UO-31. The data set is described as above. The format is cell-based. The conditions noted are these: Homo sapiens, read-out: growth inhibition % (GI%). An outline of the steps: as §1
Data set [15] relates to HOP-62. The description is as above. The format is cell-based. The conditions noted are these: Homo sapiens, read-out: growth inhibition % (GI%). An outline of the steps:
as §1

Data set [16] concerns HT29. The data set is described as above. The class given is cell-based. The conditions noted are these: Homo sapiens, HT-29, read-out: growth inhibition % (GI%). An outline of the steps: as §1
Data set [17] relates to HS 578 T. Kind of data set: NCI 60-cell line one-dose antiproliferative screen (SRB). The class given is cell-based. The conditions noted are these: Homo sapiens, read-out: growth inhibition % (GI%). An outline of the steps: as §1
Data set [18] has as its system SR. The description is as above. The format is cell-based. The conditions noted are these: Homo sapiens, read-out: growth inhibition % (GI%). An outline of the steps: as §1
Data set [19] concerns MALME-3M. The data set is described as above. The conditions noted are these: Homo sapiens, read-out: growth inhibition % (GI%). The format is cell-based. Put shortly: as §1
Data set [20] has as its system OVCAR-3. The description is as above. The format is cell-based. The conditions noted are these: Homo sapiens, read-out: growth inhibition % (GI%). Put shortly: as §1
Data set [21] relates to DU-145. Described as above. The format is cell-based. The conditions noted are these: Homo sapiens, read-out: growth inhibition % (GI%). An outline of the steps:
as §1

Data set [22] relates to KM12. The data set is described as above. The conditions noted are these: Homo sapiens, read-out: growth inhibition % (GI%). The format is cell-based. An outline of the steps: as §1

In turn, `Cc1ccc(C(=O)c2ccc(CC(=O)NN3C(=O)CCC3=O)n2C)cc1` [Compound 7a, N-(2,5-Dioxopyrrolidin-1-yl)-2–(1-methyl-5–(4-methylbenzoyl)-1H-pyrrol-2-yl) acetamide] showed a melting point above 300 °C. The inhibition at 10 µM in [1] is below 10%. Also, the inhibition at 10 µM in data set [2] worked out at 11.2%. Also, in data set [3], the inhibition at 10 µM is below 10%. In addition, in [4], the inhibition at 10 µM stood at 14%. Also, the inhibition at 10 µM in [5] was below 10%. Moreover, in data set [6], the inhibition at 10 µM is below 10%. Moreover, in data set [7], the inhibition at 10 µM came to 24.8%. The inhibition at 10 µM in data set [8] came out at 22.6%. The inhibition at 10 µM in [9] was 28.3%. Besides, the inhibition at 10 µM in data set [10] was below 10%. Also, the inhibition at 10 µM in data set [11] is 11.3%. Besides, in data set [12], the inhibition at 10 µM was found to be 11.9%. For the same molecule, the inhibition at 10 µM in [13] was below 10%. Besides, in data set [14], the inhibition at 10 µM is 41.2%. Moreover, the inhibition at 10 µM in data set [15] was 15.5%. The inhibition at 10 µM in [16] was below 10%.

Molecule `Cc1ccc(C(=O)c2ccc(CC(=O)NN=Cc3c[nH]c4ccccc34)n2C)cc1` [Compound 5f, N′-((1H-Indol-3-yl)methylene)-2–(1-methyl-5–(4-methylbenzoyl)-1H-pyrrol-2-yl) acetohydrazide] showed a melting point of 168 to 170 °C. Moreover, the inhibition at 10 µM in data set [1] is below 10%. For the same molecule, in data set [17], the inhibition at 10 µM was below 10%. The inhibition at 10 µM in data set [2] amounted to 34.2%. The inhibition at 10 µM in data set [3] was 24.6%. Also, the inhibition at 10 µM in data set [18] was 11.2%. In addition, the inhibition at 10 µM in data set [19] is 19.3%. Moreover, the inhibition at 10 µM in data set [20] was below 10%. In addition, in data set [6], the inhibition at 10 µM is below 10%. For the same molecule, in data set [7], the inhibition at 10 µM was below 10%. The inhibition at 10 µM in data set [8] was below 10%. Moreover, the inhibition at 10 µM in [9] came to 17%. Besides, the inhibition at 10 µM in data set [10] amounted to 16.8%. Besides, the inhibition at 10 µM in data set [11] was below 10%. Besides, the inhibition at 10 µM in data set [12] was determined as 10.5%. In addition, in data set [13], the inhibition at 10 µM is below 10%. Moreover, the inhibition at 10 µM in [14] is 32.8%. In addition, the inhibition at 10 µM in data set [15] is below 10%.

On to `Cc1ccc(C(=O)c2ccc(CC(=O)NN3C(=O)C=CC3=O)n2C)cc1` [Compound 7b, N-(2,5-Dioxo-2,5-dihydro-1H-pyrrol-1-yl)-2–(1-methyl-5–(4-methylbenzoyl)-1H-pyrrol-2-yl)acetamide], for which the melting point lay within 193 to 195 °C. The inhibition at 10 µM in data set [1] was below 10%. For the same molecule, in data set [17], the inhibition at 10 µM is below 10%. Besides, in data set [2], the inhibition at 10 µM was determined as 11.1%. In addition, in [3], the inhibition at 10 µM was below 10%. The inhibition at 10 µM in [21] is below 10%. For the same molecule, in data set [4], the inhibition at 10 µM is below 10%. The inhibition at 10 µM in data set [5] was below 10%. The inhibition at 10 µM in data set [6] was below 10%. Besides, the inhibition at 10 µM in [7] was 23.9%. In addition, the inhibition at 10 µM in data set [8] stood at 22.1%. Also, in [22], the inhibition at 10 µM is below 10%. Further, in data set [9], the inhibition at 10 µM is 20.3%. The inhibition at 10 µM in [10] was below 10%. The inhibition at 10 µM in data set [11] is 14%. The inhibition at 10 µM in data set [12] is 12.3%. The inhibition at 10 µM in data set [13] was below 10%. Moreover, the inhibition at 10 µM in [14] stood at 35.3%. In addition, the inhibition at 10 µM in data set [15] stood at 10.4%.

(Values after PMC8079033, “Design, synthesis, anticancer evaluation, and molecular modelling studies of novel tolmetin derivatives as potential VEGFR-2 inhibitors and apoptosis inducers” (Journal of Enzyme Inhibition and Medicinal Chemistry, 2021).)
